“And” between values parts separate entries of the source, which are not always exact repeats. Identical values can stand only once. The source made the active and inactive calls. How the calls were made is not given here.
target: Mu-type opioid receptor (Homo sapiens) + Delta-type opioid receptor (Homo sapiens) (UniProt P35372+P41143); assay: OPRM1-OPRD1 heterodimer agonist potency – cell-based, luminescence, counter-screen for MC4R biased agonist project, dose response (AID 602264); settings: cell-based OPRM1-OPRD1 heterodimerization
Sequence (P35372 whole entry, looked up): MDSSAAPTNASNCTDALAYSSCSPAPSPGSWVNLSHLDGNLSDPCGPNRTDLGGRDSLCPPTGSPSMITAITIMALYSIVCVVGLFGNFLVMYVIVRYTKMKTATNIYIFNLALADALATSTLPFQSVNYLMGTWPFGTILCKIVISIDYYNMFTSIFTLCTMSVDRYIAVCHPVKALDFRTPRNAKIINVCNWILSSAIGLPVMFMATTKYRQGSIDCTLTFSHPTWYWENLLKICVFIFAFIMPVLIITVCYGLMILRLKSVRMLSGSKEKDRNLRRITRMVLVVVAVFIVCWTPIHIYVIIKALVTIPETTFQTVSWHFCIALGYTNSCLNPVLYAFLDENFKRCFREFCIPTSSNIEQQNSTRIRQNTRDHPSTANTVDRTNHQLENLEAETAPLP
Sequence (P41143 whole entry, looked up): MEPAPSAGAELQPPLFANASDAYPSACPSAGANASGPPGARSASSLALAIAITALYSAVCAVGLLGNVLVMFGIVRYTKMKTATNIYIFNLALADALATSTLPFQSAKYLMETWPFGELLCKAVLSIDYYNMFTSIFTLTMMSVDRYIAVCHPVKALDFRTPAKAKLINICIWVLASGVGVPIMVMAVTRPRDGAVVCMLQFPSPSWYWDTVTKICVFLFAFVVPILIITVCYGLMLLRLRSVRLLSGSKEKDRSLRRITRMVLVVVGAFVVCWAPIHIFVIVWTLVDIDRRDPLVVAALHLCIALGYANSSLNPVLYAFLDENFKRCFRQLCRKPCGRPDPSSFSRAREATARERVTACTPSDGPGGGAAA

EC50 | Structure (SMILES)
> 92.5 µM (inactive) | NC(c1csc(NC(=O)Nc2cccc(Cl)c2)n1)C1CCCCC1 (stereo not drawn)
> 92.5 µM (inactive) | CN(C)CCNC(=O)c1cccc(-c2cc(NC=O)c3ncc(-c4cccc(C(F)(F)F)c4)n3c2)c1
> 10.3 µM (inactive) | CCN1/C(=C/c2ccc3cc(C)ccc3[n+]2CC)Sc2cc(C)c(C)cc21
> 92.5 µM (inactive) | CCc1ccc(OCCNc2cc(N3CCNC(C)C3)ccc2[N+](=O)[O-])cc1 (stereo not drawn)
> 92.5 µM (inactive) | Cc1ccc2[nH]c(=O)c3cc(C(=O)N(CCCOC(C)C)Cc4ccco4)sc3c2c1
> 64.6 µM (inactive) | COc1ccccc1-c1cc(NC=O)c2ncc(-c3cccc(C(F)(F)F)c3)n2c1
> 92.5 µM (inactive) | Cc1c(CCOC(=O)CC23CC4CC(CC(C)(C4)C2)C3)sc[n+]1CC(=O)c1ccccc1
> 92.5 µM (inactive) | CCc1ccc(C2CC(c3ccc(F)cc3)Nc3nc(N)nn32)cc1 (stereo not drawn)
> 92.4 µM (inactive) | CCCCCCOc1ccc(/C(C)=N/NC2=NCCN2)cc1
> 64.6 µM (inactive) | OC(CNCCc1ccc(C(F)(F)F)cc1)COC(c1ccccc1)c1ccccc1 (stereo not drawn)
> 64.6 µM (inactive) | CC(=O)Nc1cc(-c2ccc(C(=O)NC3CC3)cc2)cn2c(-c3cccc(C(C)=O)c3)cnc12
> 92.5 µM (inactive) | Cc1cc(C)nc(Nc2nc(C(N)Cc3ccc(C(F)(F)F)cc3)cs2)n1 (stereo not drawn)
> 92.5 µM (inactive) | CC(=O)Nc1cc(-c2cccnc2)cn2c(-c3cccc(C(F)(F)F)c3)cnc12
> 64.6 µM (inactive) | Clc1ccccc1/C=N/NC1=Nc2cccc3cccc1c23
> 92.4 µM (inactive) | NC(Cc1ccc(C(F)(F)F)cc1)c1csc(Nc2nccc(C(F)(F)F)n2)n1 (stereo not drawn)
> 64.6 µM (inactive) | CC(=O)Nc1cc(-c2ccc(S(C)(=O)=O)cc2)cn2c(-c3ccc(F)c(Cl)c3)cnc12
> 64.6 µM (inactive) | CC(=O)Nc1cc(-c2cccc(C(=O)N(C)C)c2)cn2c(-c3ccc(F)c(Cl)c3)cnc12
> 92.5 µM (inactive) | CCN1CCN(Cc2ccc(NC(=O)c3cc(NC(=O)C(=O)c4c[nH]c5ccccc45)cc(OC)c3)cc2C(F)(F)F)CC1
> 92.5 µM (inactive) | Cc1cccc(C)c1-n1cccc1/C=C1\SC(=S)N(c2cccc(C(=O)O)c2)C1=O
inactive | O=C1C2=C(NC(=S)NC2c2ccc(Cl)cc2)NC(c2ccc(Cl)cc2)N1c1ccc(Cl)cc1 (stereo not drawn)
> 92.4 µM (inactive) | Oc1ccc(N2CCN(c3ncnc4sc(-c5ccccc5)cc34)CC2)cc1
> 64.6 µM (inactive) | CCOCCCN(Cc1ccco1)C(=O)c1cc2c(=O)[nH]c3ccc(C)cc3c2s1

EC50 | Structure (SMILES)
> 64.6 µM (inactive) | Cc1ccc(OCC(=O)NC(=S)Nc2cccc(NC(=O)c3ccccc3)c2)cc1
> 64.6 µM (inactive) | Cc1cc(C)cc(OCC(O)CN2CCC(CN3C(=O)c4cccc5cccc(c45)C3=O)CC2)c1 (stereo not drawn)
> 10.3 µM (inactive) | COc1cc(NC(=O)Nc2nc(C(N)Cc3ccc(C(F)(F)F)cc3)cs2)cc(OC)c1OC (stereo not drawn)
> 10.3 µM (inactive) | NC(N)=Nc1nc(-c2ccccc2)c2cc(Cl)ccc2n1
> 64.6 µM (inactive) | COc1ccc(CNC(=O)Nc2nc(C(N)Cc3ccc(C(F)(F)F)cc3)cs2)cc1 (stereo not drawn)
> 64.6 µM (inactive) | CC(=O)Nc1cc(-c2ccccc2)cn2c(-c3cccc(C(C)=O)c3)cnc12
> 92.5 µM (inactive) | CC(=O)Nc1cc(-c2cccc(NS(C)(=O)=O)c2)cn2c(-c3ccccc3)cnc12
> 92.5 µM (inactive) | N#Cc1sc2nc(-c3cccs3)cc(-c3ccc(F)cc3)c2c1N
> 92.5 µM (inactive) | COc1cc(/C=C2\Oc3ccc(C#Cc4ccc(O)cc4)cc3C2=O)cc(OC)c1
> 92.5 µM (inactive) | CC1CCC(C(C)C)C(OC(=O)C[n+]2cc(-c3ccc(Cl)cc3)n3c2CCCCC3)C1 (stereo not drawn)
> 64.6 µM (inactive) | Cc1ccc2nc(Nc3ccc4[nH]c(=O)[nH]c4c3)c(-n3nc(C)cc3C)nc2c1
> 64.6 µM (inactive) | COc1cccc(-c2cnc3c(NC=O)cc(-c4ccc(O)c(OC)c4)cn23)c1
> 92.5 µM (inactive) | NC(Cc1ccc(C(F)(F)F)cc1)c1csc(NC(=O)Nc2ccccc2)n1 (stereo not drawn)
> 92.4 µM (inactive) | O=C(NC(c1ccc(Cl)cc1)c1ccccn1)C1CCN(CCOc2ccc(Cl)cc2Cl)CC1 (stereo not drawn)
> 92.5 µM (inactive) | Cc1ccc(NC(=O)c2ccccc2OCC(=O)c2ccc(F)cc2)cc1
> 92.4 µM (inactive) | CCC(C)NC(=O)c1c(N)n(/N=C/c2cccnc2)c2nc3ccccc3nc12 (stereo not drawn)
> 64.6 µM (inactive) | NC(Cc1ccc(C(F)(F)F)cc1)c1csc(NC(=O)Nc2ccccc2Cl)n1 (stereo not drawn)
> 92.5 µM (inactive) | CCN1C(=O)/C(=C2/Sc3ccc(OC)cc3N2C)SC1=Nc1cccc(O)c1
> 92.5 µM (inactive) | O=C(N/N=C/c1ccc(OCc2ccccc2)cc1)c1cccs1
> 92.5 µM (inactive) | O=C(Nc1cccc(NC(=S)NC(=O)c2cccs2)c1)c1ccccc1
inactive | Clc1ccc(C2=Nn3c(nnc3-c3cc(-c4ccccc4)n[nH]3)SC2)cc1
> 92.5 µM (inactive) | Cc1cccnc1C(c1ccc(F)cc1)N(C)C(=O)C1CCN(CCOc2ccc(Cl)cc2Cl)CC1 (stereo not drawn)

EC50 | Structure (SMILES)
inactive | Cc1ccc(Sc2ccc(NC(=O)CCl)cc2)cc1C
> 64.6 µM (inactive) | CC(=O)Nc1ccc(-c2csc(NC(=O)Nc3ccccc3)n2)cc1
> 64.6 µM (inactive) | Cc1ccc(-c2nnc(-c3ccc(NC(=O)Cc4cccs4)cc3)o2)cc1
> 92.4 µM (inactive) | O=C(NC(c1ccc(Cl)cc1)c1cccnc1)C1CCN(CCOc2ccc(Cl)cc2Cl)CC1 (stereo not drawn)
> 64.6 µM (inactive) | CN(C)CCCNC(=O)c1ccc(-c2nc(-c3ccc(Cl)cc3)cs2)cc1
> 92.5 µM (inactive) | Cc1cccc(NC(=S)NC(=O)C(c2ccccc2)c2ccccc2)n1
> 64.6 µM (inactive) | CCN1CCN(Cc2ccc(NC(=O)c3cc(NC(=O)c4cncc(-c5ccc(C#N)cc5)c4)cc(OC)c3)cc2C(F)(F)F)CC1
> 64.6 µM (inactive) | CCN1CCC(O)(/C=C/c2ccc(C(C)C)cc2)C(C(=O)/C=C/c2ccc(C(C)C)cc2)C1 (stereo not drawn)
> 92.4 µM (inactive) | N#C/C(=C\c1cn(CCOc2ccccc2F)c2ccccc12)C(=O)NCc1cccs1
> 64.6 µM (inactive) | CCOc1ccc(Cn2c3ccc(OC)cc3c3nc4ccccc4nc32)cc1
> 92.5 µM (inactive) | CN(C)CCOc1ccc(-c2c(-c3ccsc3)sc3ccccc23)cc1
> 92.5 µM (inactive) | COc1ccc(NC(=O)Nc2nnc(-c3ccccc3SCc3ccccc3)s2)cc1
> 92.5 µM (inactive) | NC(CCc1ccccc1)c1csc(Nc2ccc(C(=O)c3ccccc3)cc2)n1 (stereo not drawn)
> 64.6 µM (inactive) | CN(C)CCNC(=O)c1cccc(-c2cnc3c(NC=O)cc(-c4cccc(C(F)(F)F)c4)cn23)c1
> 92.5 µM (inactive) | CC(C)CC(N)c1csc(Nc2ccc(C(F)(F)F)cn2)n1 (stereo not drawn)
> 64.6 µM (inactive) | NC(Cc1ccc(Cl)cc1)c1csc(NC(=O)Nc2ccccc2)n1 (stereo not drawn)
> 64.6 µM (inactive) | C/C(=C\c1ccco1)C1C(C#N)=C(N)Oc2n[nH]c(-c3ccc(C)cc3)c21 (stereo not drawn)
> 64.6 µM (inactive) | COc1ccc(-c2sc3ccc(N4CCOCC4)cc3c2C#CC2(O)CCCCC2)cc1
> 64.6 µM (inactive) | COc1cc(-c2cc(NC=O)c3ncc(-c4ccccc4)n3c2)cc(OC)c1OC
> 92.5 µM (inactive) | COc1cc(-c2cc(NC=O)c3ncc(-c4ccc(C(C)=O)cc4)n3c2)cc(OC)c1OC
> 64.6 µM (inactive) | COc1cc(-c2cc(NC=O)c3ncc(-c4cccc(C(F)(F)F)c4)n3c2)cc(OC)c1OC
> 92.5 µM (inactive) | CCc1ccc(CCC(=O)Nc2ncc(Cc3ccccc3Cl)s2)o1

EC50 | Structure (SMILES)
> 92.6 µM (inactive) | CCCOC(=O)c1cccc(Nc2nc(-c3cccnc3)nc3ccccc23)c1
> 92.5 µM (inactive) | O=CNc1cc(-c2ccsc2)cn2c(-c3ccccc3)cnc12
> 64.6 µM (inactive) | CCOC(=O)c1ccc(-c2ccc(/C=C(\C#N)C(=O)NCc3cccs3)o2)cc1
> 64.6 µM (inactive) | Cc1ccc(C2=NN(C(=O)c3cccs3)C(c3ccccc3O)C2)cc1 (stereo not drawn)
> 64.6 µM (inactive) | COc1ccccc1-c1cc(NC(C)=O)c2ncc(-c3cccc(C(C)=O)c3)n2c1
> 64.6 µM (inactive) | O=C(Nc1nc2ccc(SC(F)F)cc2s1)c1ccc(NS(=O)(=O)c2ccc(F)c(F)c2)cc1
> 64.6 µM (inactive) | Cc1ccc(-c2csc3nc4c5ccccc5c(NCCCN(C)C)nn4c(=O)c23)cc1
> 64.6 µM (inactive) | CC1(C)Oc2ccc3ccc(=O)oc3c2/C(=C/Nc2ccc(O)cc2)C1=O
> 64.6 µM (inactive) | COc1ccc(-c2cc(NC=O)c3ncc(-c4ccccc4)n3c2)cc1OC
> 92.5 µM (inactive) | CC(=O)Nc1cc(-c2ccccc2)cn2c(-c3ccc(F)c(Cl)c3)cnc12
> 64.6 µM (inactive) | CCC(C)(C)c1ccc(OCCCC[n+]2cccc(C)c2C)c(C(C)(C)CC)c1
> 92.5 µM (inactive) | OC(CNCCc1ccc(C(F)(F)F)cc1)COc1cccc2ccccc12 (stereo not drawn)
> 64.6 µM (inactive) | Cc1ccc(C(=O)NCCNc2nc3cc(C)c(C)cc3cc2C)cc1
> 92.5 µM (inactive) | O=C(N/N=C/c1c[nH]c2ccccc12)C1CC1(c1ccccc1)c1ccccc1 (stereo not drawn)
> 64.6 µM (inactive) | COc1ccc(-c2cc(NC(C)=O)c3ncc(-c4cccc(C(C)=O)c4)n3c2)cc1OC
> 64.6 µM (inactive) | CN(C)c1ccccc1-c1cc(NC=O)c2ncc(-c3cccc(C(F)(F)F)c3)n2c1
> 92.4 µM (inactive) | COc1ccc2oc(=O)c(-c3csc(Nc4cccc(O)c4)n3)cc2c1
> 92.5 µM (inactive) | NC(c1ccccc1)c1csc(NC(=O)Nc2ccccc2Oc2ccccc2)n1 (stereo not drawn)
> 64.6 µM (inactive) | CCC(C)c1ccc(NC(=S)NC2CCN(Cc3ccccc3)CC2)cc1 (stereo not drawn)
> 64.6 µM (inactive) | COc1cccc(-c2sc3ccccc3c2-c2ccc(OCCN(C)C)cc2)c1
> 92.5 µM (inactive) | Cc1c(CN2CCC(CO)(CCOc3ccccc3)CC2)[nH]c2c(Cl)cccc12

Structure (SMILES) | EC50
CCN1CCN(Cc2ccc(NC(=O)c3ccc(C)c(NC(=O)C(=O)c4c[nH]c5ccccc45)c3)cc2C(F)(F)F)CC1 | > 10.3 µM (inactive) and > 92.5 µM (inactive)

From PubChem BioAssay AID602264 (The Scripps Research Institute Molecular Screening Center, 2012)
